This is an account of results in patent US9371337B2, “β-lactamase inhibitors” (The Regents of the University of California, priority 2011, dated 2016).

The test system of test [1] is E. cloacae 135, AmpC-overproducing. The experiment in a line: MIC of third-generation cephalosporins alone and with compounds (Table 6). It is filed as cell-based, Enterobacter cloacae. The settings on record: antibiotic alone. The procedure:
(§1) The anti-resistance activity of inhibitors was investigated by the determination of the minimum inhibitory concentrations (MICs) of the β-lactam/inhibitor combination necessary to inhibit the growth of clinically-isolated bacteria resistant to third-generation cephalosporins via expression of class A or class C β-lactamases (Table 6).
(§2) Susceptibility testing was performed and interpreted following the guidelines of CLSI. (Clinical and Laboratory Standards Institute, Performance standards for antimicrobial susceptibility testing, 20th Informational Supplement, M100-S20 2010) The compounds were dissolved in 50% DMSO, and dilutions were performed using Muller-Hinton medium. An adequate final concentration was obtained to determine the minimum inhibitory concentrations (MICs). The concentration of DMSO was maintained below 5%. The inhibitors were tested for synergy with the third-generation β-lactams ceftazidime and cefotaxime against several clinical bacteria. The ratio of β-lactams to inhibitors was 1:4. Each value reported reflects the average of three independent experiments. […] The Friedman's test and the Wilcoxon signed rank test were used to compare MIC values. Statistical significance was established at p<0.05.
(§3) Table 6. MICs (μg/ml) of third-generation cephalosporins alone and in association with the compounds (ratio 1/4) for clinical bacteria. CTX, cefotaxime and CAZ, ceftazidime. ^1, AmpC-overproducing bacteria; ^2, CTX-M-14-producing E. coli; ^3, KPC-2-producing K. pneumoniae; ^4, OXA-48-producing K. pneumoniae; ^5, NDM-1-producing C. freundii.

The subject of test [2] is E. cloacae, AmpC-overproducing. Described as above. Type of test: cell-based, Enterobacter cloacae. The conditions noted are these: antibiotic alone. The procedure: as §1, §2, §3
Test [3] concerns P. aeruginosa, AmpC-overproducing. The test is described as above. Type of test: cell-based, Pseudomonas aeruginosa. The conditions noted are these: antibiotic alone. The procedure:
as §1, §2
Table 6. MICs (μg/ml) of third-generation cephalosporins alone and in association with the compounds (ratio 1/4) for clinical bacteria. […]

Test [4] concerns AmpC-overproducing Escherichia coli strain 4. The experiment in a line: Mouse model of bacteremia and sepsis, survival. It is filed as in vivo, OF1 mice. The settings on record: 120 h post infection; ip at 0.5, 3.5, 6.5 h; imipenem 50 mg/kg, cefotaxime 50 mg/kg, cefotaxime:CR161 50:200 mg/kg. The procedure: FIG. 17. Percentage of survival of mice infected with AmpC-overproducing Escherichia coli over the course of 5 days (120 h). Mice were inoculated by intraperitoneal injection with AmpC-overproducing Escherichia coli strain 4 (1±0.5 10^9 colony-forming units) and treated at 0.5, 3.5, 6.5 h after infection by intraperitoneal injection of 50 mg/kg imipenem (□, n=20), 50:200 mg/kg cefotaxime:CR161 combination (▪, n=17), 50 mg/kg cefotaxime (●, n=20) or sterile isotonic saline (◯, n=20).
Efficacy in a mouse model of infection. We had not observed such substantial reversal of bacterial resistance to β-lactams, across such a broad spectrum of clinical isolates, for previous series of boronic acid inhibitors of β-lactamase; indeed, this lack of efficacy had motivated this study. These new cell-culture MIC values inspired us to investigate the efficacy of one of these compounds in a mouse model of bacteremia and sepsis. […] Mice were treated with cefotaxime alone, cefotaxime combined with compound CR161, with sterile isotonic saline, and with imipenem as a reference treatment of systemic infections by cephalosporin-resistant enterobacteriaceae (FIG. 17); 20 mice were used in each clade. […]
OF1 mice 4-5 weeks of age and weighing 20-25 g were used in this study. […] The survival of mice in each group was monitored every 6 h for 5 days after infection. […]

Test [5] deals with NDM-1-producing C. freundii. The experiment in a line: MIC of third-generation cephalosporins alone and with compounds (Table 6). It is filed as cell-based, Citrobacter freundii. The conditions noted are these: antibiotic alone. The procedure:
as §1, §2, §3

Test [6] relates to C. freundii 101, AmpC-overproducing. The test is described as above. It is filed as cell-based, Citrobacter freundii. The settings on record: antibiotic alone. The procedure:
as §1, §2, §3

Test [7] deals with C. freundii, AmpC-overproducing. The test is described as above. The conditions noted are these: antibiotic alone. Type of test: cell-based, Citrobacter freundii. The procedure:
as §1, §2, §3

On to `CO/N=C(\C(=O)N[C@@H]1C(=O)N2C(C(=O)O)=C(COC(C)=O)CS[C@H]12)c1csc(N)n1` [Cefotaxime], for which the “MIC, cephalosporin alone” value is 128 µg/mL in test [1]; 64 µg/mL in test [2]; more than 128 µg/mL in test [3]; 512 µg/mL in test [5]; 64 µg/mL in test [6]; 16 µg/mL in test [7]. The survival in test [4] is listed as 15%.
